Results: patent publication US20140328944A1, “USE OF CTBP1 siRNA FOR THE TREATMENT OF GASTRIC CANCER” (CTI, priority 2013, published 2014)

Tested on: AGS and MKN45 gastric cancer cell lines
Test: MTS-based cell proliferation assay after siRNA transfection (drug dose-response)
Settings: CTBP1 siRNA (5 nM) vs untreated cells (WT) and control siRNA, 72 h drug incubation
Method: MKN45 cell lines were grown in RPM1-1640 media and AGS cell lines in F12K, both media were supplemented with 10% characterized fetal bovine serum (FBS) (Hyclone, Logan, Utah, USA) and 100 U /ml of Penicillin /Streptomycin (Gibco BRL, Gaithersburgh, Md., USA). Cells were grown in an incubator (NUAIRE, Plymouth, USA) at 37° C. with an atmosphere of 5% CO2 and 90% humidity. The drugs 5-FU, Cisplatin and Epirubicin were donated for this research by the Kampar Oncology Laboratory (Santiago, Chile).
In 6-well plates, 200,000 cells were cultured in their respective culture medium with 10% FBS for 24 h at 37° C. and 5% CO2 pressure. Then cells were washed once with PBS IX and 900 ul of their respective medium without serum and without antibiotic were added.
The cells were transfected with a pool of 4 siRNA Flexitube siRNA CTBP1 and siRNA control AllStars Negative Control (QIAGEN, Valencia, Calif., USA) at a concentration of 5 nM with 2.5 ul of Lipofectamine 2000 (Invitrogen, Carlsbad, Calif., USA). […]
24 hours after transfection, cells were seeded in 96 well plates at a concentration of 10,000 cells per well. […] The IC50 values were calculated using GraphPad 5.0 software. The results of the response to the drugs were expressed as mean±SD. […]

Row | SMILES | increase in sensitivity to the drug on silencing of CTBP1 with siRNA
1 | O=c1[nH]cc(F)c(=O)[nH]1 [5-FU, 5-Fluorouracil] | approximately 6 times
2 | COc1cccc2c1C(=O)c1c(O)c3c(c(O)c1C2=O)C[C@@](O)(C(=O)CO)C[C@@H]3O[C@H]1C[C@H](N)[C@@H](O)[C@H](C)O1 [Epirubicin] | 12-17 times
